Like-named read-outs stand apart in the source and are kept apart here.
Legend:
[1] = in vitro; conditions: both, human, brain homogenate
[2] = molecular target: T1, human MDR1 (Homo sapiens, UniProt P08183); conditions: dog, MDCK-MDR1
[3] = cited from earlier work
[4] = test system: ReN VM cells; conditions: human
[5] = test system: PrP^C; assay type: cell-based, human; conditions: ReN VM ATP1A1^r/r cells whose ATP1A1 does not bind CGs
[6] = in vitro; conditions: guinea pig, brain homogenate
[7] = test system: PrP^C; assay type: cell-based, human
[8] = in vitro; conditions: Atp1a1^S/S (gene-edited), mouse, brain homogenate
[9] = in vitro; conditions: guinea pig, plasma
[10] = in vivo; conditions: Atp1a1^S/S (gene-edited), mouse
[11] = molecular target: human MDR1 (P-glycoprotein, ABCB1) (Homo sapiens, UniProt P08183); assay: in vitro; conditions: dog; for Papp A→B: MDCK-MDR1, Papp A–B; for Papp B→A: MDCK-MDR1, Papp B–A
[12] = Atp1a1^S/S (gene-edited), mouse, in vivo; for Abrain / Cbrain (mean total brain concentration) / Cu,brain (unbound brain concentration): 0.6 mg/kg
[13] = test system: PrP^C; assay type: cell-based, human; conditions: differentiated T98G cells
[14] = test system: HeLa cells; conditions: cited from earlier work
[15] = molecular target: T1, human MDR1; parameters: host or cells: MDCKII (canine kidney) cells, canine MDR1 deleted, human MDR1 gene inserted; method as in PMID 22906709, PMID 15620875; conditions: published values; cited from earlier work
[16] = test system: ReN VM cells; conditions: cited from earlier work
[17] = in vivo, po; cited from earlier work
[18] = in vivo, iv; cited from earlier work

Chain of human MDR1 (P-glycoprotein, ABCB1) (P08183 whole entry): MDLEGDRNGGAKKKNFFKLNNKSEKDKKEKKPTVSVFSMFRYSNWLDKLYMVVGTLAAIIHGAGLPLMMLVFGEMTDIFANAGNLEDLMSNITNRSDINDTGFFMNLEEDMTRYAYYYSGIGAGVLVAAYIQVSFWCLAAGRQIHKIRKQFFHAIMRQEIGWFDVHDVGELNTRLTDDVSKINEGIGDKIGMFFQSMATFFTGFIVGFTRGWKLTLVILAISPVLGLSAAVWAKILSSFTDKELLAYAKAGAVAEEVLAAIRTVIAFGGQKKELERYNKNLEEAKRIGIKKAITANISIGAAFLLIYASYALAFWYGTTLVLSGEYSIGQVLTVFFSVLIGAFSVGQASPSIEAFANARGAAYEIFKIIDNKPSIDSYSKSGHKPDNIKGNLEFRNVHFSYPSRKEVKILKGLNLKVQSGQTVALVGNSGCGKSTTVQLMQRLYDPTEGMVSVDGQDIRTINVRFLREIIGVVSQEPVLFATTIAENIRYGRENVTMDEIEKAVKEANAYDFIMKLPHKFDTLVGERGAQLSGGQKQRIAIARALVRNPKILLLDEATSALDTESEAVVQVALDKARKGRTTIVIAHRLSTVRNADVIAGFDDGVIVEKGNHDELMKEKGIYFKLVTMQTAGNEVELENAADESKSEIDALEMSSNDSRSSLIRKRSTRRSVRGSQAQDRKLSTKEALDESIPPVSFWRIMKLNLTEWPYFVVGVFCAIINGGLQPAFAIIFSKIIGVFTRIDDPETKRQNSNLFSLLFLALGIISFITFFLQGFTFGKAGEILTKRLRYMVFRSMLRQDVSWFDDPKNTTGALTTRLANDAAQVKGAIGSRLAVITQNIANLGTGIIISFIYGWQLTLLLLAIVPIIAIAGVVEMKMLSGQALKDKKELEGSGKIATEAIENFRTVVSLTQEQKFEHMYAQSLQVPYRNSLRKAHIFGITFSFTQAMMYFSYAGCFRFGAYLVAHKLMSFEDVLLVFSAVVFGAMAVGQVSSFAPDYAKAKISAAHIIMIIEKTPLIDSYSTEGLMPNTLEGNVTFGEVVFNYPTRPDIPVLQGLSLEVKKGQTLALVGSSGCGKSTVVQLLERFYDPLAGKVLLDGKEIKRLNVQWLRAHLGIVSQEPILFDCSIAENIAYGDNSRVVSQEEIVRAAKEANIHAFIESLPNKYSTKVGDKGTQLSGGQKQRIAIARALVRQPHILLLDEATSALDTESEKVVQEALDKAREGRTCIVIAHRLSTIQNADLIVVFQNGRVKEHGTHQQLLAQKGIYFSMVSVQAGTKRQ
T1 sequence (P08183 whole entry): as above

Q: With COC1CC(OC2CCC3(C)C(CCC4C3CCC3(C)C(C5=CC(=O)OC5)C(OC(C)=O)CC43O)C2)OC(C)C1=O (centres unmarked) [KDC203, 4′-dehydro-oleandrin] as the compound, how does the fraction unbound [1] read?
A: The fraction unbound was 0.395.

Q: And the “Papp A–B” value [2]?
A: The value was 7.24.

Q: What about the “Papp B–A” value [2] of the same compound?
A: The value was 70.60.

Q: And the “reduction of extrusion on addition of Zosuquidar” value [2]?
A: The value was “more than 50%”.

Q: And the “oral effectiveness relative to oleandrin (lethal doses oral versus intravenous), higher by” value ([3]; cats)?
A: The value was “approximately 20%”.

Q: And the “oral toxicity relative to oleandrin” value ([3]; in vivo, po)?
A: Its value is “almost twofold lower”.

Q: What about the “concentrations at which cytotoxicity observed” value [4] of the same compound?
A: The value was greater than 40 nM.

Q: What about the “toxicity threshold (concentration at which all three cellular health indicators dropped to 75% of untreated)” value [4] of the same compound?
A: Its value is 46 nM.

Q: And the “reduction in PrP^C levels” value [5]?
A: The value was “no KDC203-mediated reduction in PrP^C levels was observed”.

Q: What about the fraction unbound [6] of the same compound?
A: Its fraction unbound is 0.294.

Q: What about the “estimated total brain concentration attainable in human brains” value of the same compound?
A: The value was 27 nM.

Q: And the “estimated unbound concentration attainable in human brains” value?
A: Its value is roughly 10 nM.

Q: What about the “maximum reduction in steady-state PrP^C levels (3F4-reactive signals)” value [7] of the same compound?
A: The value was 84%.

Q: What about the fraction unbound [8] of the same compound?
A: Its fraction unbound is 0.33.

Q: What about the fraction unbound [9] of the same compound?
A: The fraction unbound was 0.359.

Q: What about the Kp uu [10] of the same compound?
A: The Kp uu was 0.44.

Q: And the Papp A→B [11]?
A: The Papp A→B was 11.6 ×10⁻⁶ cm/s.

Q: What about the Papp B→A [11] of the same compound?
A: Its Papp B→A is 41.9 ×10⁻⁶ cm/s.

Q: And the “Vu,brain” value [12]?
A: The value was 2.90 mL/g brain.

Q: And the “brain levels relative to heart levels” value ([12]; sc)?
A: Its value is 3.5 fold.

Q: And the “total brain concentration of KDC203 relative to oleandrin” value ([12]; sc)?
A: The value was 1.5 fold.

Q: What about the Abrain ([12]; sc) of the same compound?
A: Its Abrain is 16.75 ng/g brain.

Q: What about the “Cbrain (mean total brain concentration)” value ([12]; sc) of the same compound?
A: The value was 30.46 nM.

Q: What about the “Cu,brain (unbound brain concentration)” value ([12]; sc) of the same compound?
A: The value was 10.05 nM.

Q: And the “reduction in PrP^C levels” value [13]?
A: The value was “recapitulate the KDC203-dependent reduction in PrP^C levels”.

Q: What about the IC50 [14] of the same compound?
A: Its IC50 is 46 nM.

Q: For C[C@H]1O[C@@H](O[C@H]2[C@@H](O)C[C@H](O[C@H]3[C@@H](O)C[C@H](O[C@H]4CC[C@@]5(C)[C@H](CC[C@@H]6[C@@H]5C[C@@H](O)[C@]5(C)[C@@H](C7=CC(=O)OC7)CC[C@]65O)C4)O[C@@H]3C)O[C@@H]2C)C[C@H](O)[C@@H]1O [digoxin], which “PappA-B, published value” [15] is on record?
A: Its value is 0.5 ×10⁻⁶ cm/s.

Q: Which fraction unbound [1] does the source give for CO[C@H]1C[C@H](O[C@H]2CC[C@@]3(C)[C@H](CC[C@@H]4[C@@H]3CC[C@]3(C)[C@@H](C5=CC(=O)OC5)[C@@H](OC(C)=O)C[C@]43O)C2)O[C@@H](C)[C@@H]1O [oleandrin, reference compound] here?
A: Its fraction unbound is 0.316.

Q: What about the “Papp B–A” value [2] of the same compound?
A: Its value is 145.79.

Q: What about the “concentrations at which toxic” value [16] of the same compound?
A: Its value is “exceeding 4 nM”.

Q: And the “toxicity threshold (concentration at which all three cellular health indicators dropped to 75% of untreated)” value [4]?
A: Its value is 2.7 nM.

Q: What about the plasma levels [17] of the same compound?
A: The plasma levels was 3 nM.

Q: And the fraction unbound [6]?
A: The fraction unbound was 0.219.

Q: What about the “estimated total brain concentration attainable in human brains” value of the same compound?
A: The value was no more than 18 nM.

Q: What about the fraction unbound [8] of the same compound?
A: Its fraction unbound is 0.24.

Q: And the fraction unbound [9]?
A: Its fraction unbound is 0.219.

Q: And the Kp uu [10]?
A: The Kp uu was 0.27.

Q: What about the Papp A→B [11] of the same compound?
A: Its Papp A→B is 7.06 ×10⁻⁶ cm/s.

Q: And the Papp B→A [11]?
A: The Papp B→A was 146 ×10⁻⁶ cm/s.

Q: What about the “cerebrum levels relative to plasma levels” value [18] of the same compound?
A: Its value is 6 fold.

Q: And the “Vu,brain” value [12]?
A: The value was 3.98 mL/g brain.

Q: What about the Abrain ([12]; sc) of the same compound?
A: The Abrain was 10.58 ng/g brain.

Q: What about the “Cbrain (mean total brain concentration)” value ([12]; sc) of the same compound?
A: The value was 19.23 nM.

Q: And the “Cu,brain (unbound brain concentration)” value ([12]; sc)?
A: The value was 4.61 nM.
